Results as given in patent US4621094A, “Anti-histaminic pyridyl compounds” (priority 1984, dated 1986).

Target: T1, H1 histamine receptor (Cavia porcellus, UniProt P31389)
T1 construct: The longitudinal muscle was isolated from the intact ileum of guinea pigs; from tissue; host or cells: ileum longitudinal muscle, guinea pig (Hartley, male 250-400 g)
Experiment: Antihistaminic activity: antagonism of histamine concentration-response curves in isolated guinea pig ileum longitudinal muscle (Schild plot)
Format: cell-based, guinea pigs
Conditions: negative log of molar antagonist concentration shifting the control histamine concentration-response curve 2X to the right; tissue incubated one hour with test compound; organ bath, 300 mg tension; read-out: pA2 (converted)
Protocol: The longitudinal muscle was isolated from the intact ileum of guinea pigs (Hartley, male 250-400 g) and placed in an organ bath under 300 mg tension. After one hour of equilibration, cumulative concentration-response curves (Van Rossum, J. M., Arch. Int. Pharmacodyn. Ther. 143, 299-330, 1963) to histamine were obtained. Following washing, the tissues were incubated for one hour with the test compound and then a second histamine concentration-response curve was run. Shifts to the right of the agonist concentration-response curve produced by the antagonists were used to construct Schild plots (Arunlakshana, O. And Schild, H. O., Br. J. Pharmacol: 14, 48-58, 1959 ). Regression of Log (dr-1) on Log [B], where dr is an equiactive response in the presence and absence of antagonist and [B] is the molar concentration of antagonist, allowed an estimate of pA2, i.e. the negative log of the concentration of antagonist which shifts the control histamine concentration-response curve 2X to the right.

T1 sequence (P31389 whole entry): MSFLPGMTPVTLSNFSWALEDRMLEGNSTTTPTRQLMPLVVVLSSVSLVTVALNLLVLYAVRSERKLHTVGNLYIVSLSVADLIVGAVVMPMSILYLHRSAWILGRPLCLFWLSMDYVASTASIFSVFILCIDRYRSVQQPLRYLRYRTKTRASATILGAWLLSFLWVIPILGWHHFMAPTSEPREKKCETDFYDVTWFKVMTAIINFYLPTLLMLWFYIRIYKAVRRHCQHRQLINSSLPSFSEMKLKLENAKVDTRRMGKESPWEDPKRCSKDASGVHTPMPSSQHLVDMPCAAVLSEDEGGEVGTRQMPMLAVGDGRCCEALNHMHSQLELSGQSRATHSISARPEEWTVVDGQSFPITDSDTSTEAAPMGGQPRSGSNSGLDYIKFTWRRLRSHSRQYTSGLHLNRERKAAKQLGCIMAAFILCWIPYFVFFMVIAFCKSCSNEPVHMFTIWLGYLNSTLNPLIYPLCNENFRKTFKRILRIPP

Kb: 2000 nM
Compound: CN(C)CCC(c1ccc(Cl)cc1)c1cccc(/C=C/C(=O)O)n1 (stereo not shown) [(E)-6-(1-(4-chlorophenyl)-3-dimethylaminopropyl)-2-pyridyl acrylic acid]
